According to paper PMC9981942, “Pharmacokinetics and tissue distribution of Ramulus Mori (Sangzhi) alkaloids in rats and its effects on liver enzyme activity” (Frontiers in Pharmacology, 2023):
Several values for one entry are separate records, joined by “and”; a condition that tells them apart may be missing. Equal values may be shown once. Read-outs that look alike come from different tables or passages of the source.

Assays:
[1] = Tissue distribution after single oral SZ-A (40 mg/kg) in SD rats, plasma and 12 tissues; format: in vivo; settings: for accumulation in tissues: up to 12 h
Description: (§1) Twenty SD rats were randomly classified into four groups corresponding to four-time points (5 and 30 min, 4 and 12 h) (n = 20; 5 animals per time point) that received SZ-A solution (40 mg/kg) via oral administration. After the completion of dose administration, plasma and tissue samples (derived from the heart, liver, spleen, lung, kidney, aortic blood vessels, brown adipose tissue, subcutaneous adipose tissue, abdominal adipose tissue, muscle (thigh skeletal muscle), pancreas, and brain) were collected at predetermined time points. Twenty-eight ICR mice were randomly classified into four groups (n = 7 per group) corresponding to four-time points (5 and 30 min, 4 and 12 h) that received SZ-A solution (20 mg/kg) via oral administration. After the completion of dose administration, tissue samples (derived from the heart, liver, spleen, lung, kidney, aortic blood vessels, brown adipose tissue, abdominal adipose tissue, muscle (thigh skeletal muscle), pancreas, and brain) were collected at predetermined time points.
(§2) Collected tissue samples were washed with normal saline. The surface moisture was removed by blotting gently with filter paper, and the weight was recorded. After adding an appropriate amount of normal saline, these tissue samples were ground into homogenates using a cryogenic grinder (JX-CL, Shanghai Jingxin, Shanghai, China). The obtained homogenates were stored at −80°C until LC-MS/MS analysis.
Primary pharmacokinetic parameters, including Cmax, Tmax, area under the plasma concentration-time curve (AUC), t1/2, clearance rate, and the apparent volume of distribution, were calculated using DAS 3.2.8 (Bio Guider Co., Shanghai, China).

[2] = Tissue distribution after single oral SZ-A (20 mg/kg) in ICR mice; format: in vivo
Description: as §1, §2

[3] = Identification of metabolites in HLMs/RLMs and rat plasma (Q-Extractive high-resolution MS); format: in vitro ADME, human; settings: HLMs/RLMs and rat plasma reaction system
Description: Furthermore, 5 μL of the supernatant was collected for LC-MS/MS analysis. The LC-MS/MS conditions were as follows: chromatographic column (XBridge™ Amide, 3.5 µm, 4.6 × 150 mm); mobile phase, water (0.1% ammonia) and acetonitrile, other conditions are the same as those in CYP450s inhibition study, with the following scan parameters: resolution, 70,000; AGC target, 3,000,000; maximum IT, 200 ms; and scan range, 50–600 m/z.

[4] = design: method as in Yang et al., 2017; settings: ref Yang et al., 2017, cited from earlier work; for form excreted: material conservation within 24 h after oral administration of SZ-A; for oral absolute bioavailability / pharmacokinetic profile versus dose: rats; for oral absolute bioavailability: after oral administration of SZ-A; for pharmacokinetic profile versus dose: oral SZ-A 20–500 mg/kg
rat CYP2C11 = target: T1, rat CYP2C11 (Rattus norvegicus, UniProt P08683); experiment: Inhibition of CYP450s in rat liver microsomes, probe mephenytoin; settings: RLMs; SZ-A 8.899 μg/mL, DNJ 20 μM, FA 5 μM, DAB 8 μM
T1 sequence (P08683 1-500): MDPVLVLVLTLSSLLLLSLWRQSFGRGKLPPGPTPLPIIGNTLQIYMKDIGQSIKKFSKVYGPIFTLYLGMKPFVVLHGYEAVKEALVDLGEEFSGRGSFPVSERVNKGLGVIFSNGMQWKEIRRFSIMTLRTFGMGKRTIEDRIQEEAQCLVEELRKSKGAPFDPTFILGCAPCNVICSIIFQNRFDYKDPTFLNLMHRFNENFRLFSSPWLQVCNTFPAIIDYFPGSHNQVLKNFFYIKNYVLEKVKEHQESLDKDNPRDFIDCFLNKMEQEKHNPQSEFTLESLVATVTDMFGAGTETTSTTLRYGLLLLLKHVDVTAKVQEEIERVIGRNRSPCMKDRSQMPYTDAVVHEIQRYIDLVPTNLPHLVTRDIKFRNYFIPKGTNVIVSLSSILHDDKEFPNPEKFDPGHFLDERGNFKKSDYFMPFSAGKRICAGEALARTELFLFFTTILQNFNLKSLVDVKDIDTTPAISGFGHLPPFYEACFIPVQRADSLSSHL

[5] = tested on: CYP450s in RLMs (other isoenzymes); experiment: Effect on activity of rat liver microsome isoenzymes other than CYP2C11; settings: SZ-A 8.899 μg/mL, DNJ 20 μM, FA 5 μM, DAB 8 μM
[6] = Sprague-Dawley, rat, Brown adipose tissue, n=5
[7] = Sprague-Dawley, rat, Brown adipose tissue, n=5, read-out: AUC(0-t)
[8] = Sprague-Dawley, rat, Brown adipose tissue, n=5, read-out: Tmax
[9] = Sprague-Dawley, rat, Kidney, n=5
[10] = Sprague-Dawley, rat, Kidney, n=5, read-out: AUC(0-t)
[11] = Sprague-Dawley, rat, Kidney, n=5, read-out: Tmax
[12] = Sprague-Dawley, rat, Liver, n=5
[13] = Sprague-Dawley, rat, Liver, n=5, read-out: AUC(0-t)
[14] = Sprague-Dawley, rat, Liver, n=5, read-out: Tmax
[15] = Sprague-Dawley, rat, Lung, n=5, read-out: Tmax
[16] = Sprague-Dawley, rat, Pancreas, n=5
[17] = Sprague-Dawley, rat, Pancreas, n=5, read-out: AUC(0-t)
[18] = Sprague-Dawley, rat, Pancreas, n=5, read-out: Tmax
[19] = Sprague-Dawley, rat, Plasma, n=5
[20] = Sprague-Dawley, rat, Plasma, n=5, read-out: AUC(0-t)
[21] = Sprague-Dawley, rat, Plasma, n=5, read-out: Tmax
[22] = Sprague-Dawley, rat, muscle (thigh skeletal muscle), Muscle, n=5
[23] = Sprague-Dawley, rat, muscle (thigh skeletal muscle), Muscle, n=5, read-out: AUC(0-t)
[24] = Sprague-Dawley, rat, muscle (thigh skeletal muscle), Muscle, n=5, read-out: Tmax
[25] = rat, Abdominal adipose tissue, n=5
[26] = rat, Abdominal adipose tissue, n=5, read-out: AUC(0-t)
[27] = rat, Abdominal adipose tissue, n=5, read-out: Tmax
[28] = rat, Aortic blood vessels, n=5, read-out: Tmax
[29] = rat, Heart, n=5, read-out: AUC(0-t)
[30] = rat, Heart, n=5, read-out: Tmax
[31] = rat, Lung, n=5, read-out: AUC(0-t)
[32] = rat, Spleen, n=5, read-out: AUC(0-t)
[33] = rat, Spleen, n=5, read-out: Tmax
[34] = rat, Subcutaneous adipose tissue, n=5
[35] = rat, Subcutaneous adipose tissue, n=5, read-out: AUC(0-t)
[36] = rat, Subcutaneous adipose tissue, n=5, read-out: Tmax
[37] = rat, other tissues (not named), tissues not named separately for that alkaloid, read-out: time of peak concentration in other tissues (converted)

OC[C@H]1NC[C@@H](O)[C@@H]1O [DAB, 1,4-dideoxy-1,4-imino-D-arabinitol]
time of distribution peak in the aortic vessel [1]: ≤ 5 min
tissues with the highest concentrations [1]: kidney, followed by the liver, aortic vessels, and brown adipose tissue
AUC(0-t) ([1]; Aortic blood vessels, n=5): 962 ± 354 ng·h/mL
CLz ([1]; Plasma, n=5): 32.5 ± 4.33 mL/min/kg
Vz ([1]; Plasma, n=5): 1.61 ± 0.24 L/kg
half-life [1, 6]: 40.8 ± 0.6 min
AUC(0-t) [1, 7]: 716 ± 259 ng·h/mL
Tmax [1, 8]: 30 min
Cmax [1, 9]: 13300 ± 2890 ng/mL
half-life [1, 9]: 165 ± 30.6 min
AUC(0-t) [1, 10]: 37800 ± 7170 ng·h/mL
Tmax [1, 11]: 30 min
Cmax [1, 12]: 2070 ± 396 ng/mL
half-life [1, 12]: 229 ± 44.4 min
AUC(0-t) [1, 13]: 8120 ± 2150 ng·h/mL
Tmax [1, 14]: 30 min
Cmax ([1]; Sprague-Dawley, rat, Lung, n=5): 200 ± 22.3 ng/mL
half-life ([1]; Sprague-Dawley, rat, Lung, n=5): 31.8 ± 16.2 min
Tmax [1, 15]: 13.2 ± 14.4 min
Cmax [1, 16]: 122 ± 16.9 ng/mL
half-life [1, 16]: 40.2 ± 2.4 min
AUC(0-t) [1, 17]: 854 ± 90 ng·h/mL
Tmax [1, 18]: 114 ± 115 min
Cmax [1, 19]: 973 ± 215 ng/mL
half-life [1, 19]: 34.2 ± 1.2 min
AUC(0-t) [1, 20]: 2360 ± 349 ng·h/mL
Tmax [1, 21]: 30 min
Cmax [1, 22]: 188 ± 38.4 ng/mL
half-life [1, 22]: 929 ± 700 min
AUC(0-t) [1, 23]: 1550 ± 212 ng·h/mL
Tmax [1, 24]: 67.2 ± 97.2 min
Cmax [1, 25]: 212 ± 58.2 ng/mL
half-life [1, 25]: 43.8 ± 3.6 min
AUC(0-t) [1, 26]: 460 ± 146 ng·h/mL
Tmax [1, 27]: 25.2 ± 11.4 min
Cmax ([1]; rat, Aortic blood vessels, n=5): 756 ± 536 ng/mL
half-life ([1]; rat, Aortic blood vessels, n=5): 27.6 ± 14.4 min
Tmax [1, 28]: 4.8 min
Cmax ([1]; rat, Brown adipose tissue, n=5): 269 ± 82.8 ng/mL
Cmax ([1]; rat, Heart, n=5): 114 ± 24.2 ng/mL
half-life ([1]; rat, Heart, n=5): 42.6 ± 0.6 min
AUC(0-t) [1, 29]: 469 ± 213 ng·h/mL
Tmax [1, 30]: 72 ± 94.2 min
AUC(0-t) [1, 31]: 333 ± 108 ng·h/mL
Cmax ([1]; rat, Spleen, n=5): 144 ± 39.9 ng/mL
half-life ([1]; rat, Spleen, n=5): 45 ± 4.2 min
AUC(0-t) [1, 32]: 294 ± 87 ng·h/mL
Tmax [1, 33]: 30 min
Cmax [1, 34]: 112 ± 41.5 ng/mL
half-life [1, 34]: 44.4 ± 1.8 min
AUC(0-t) [1, 35]: 232 ± 75 ng·h/mL
Tmax [1, 36]: 30 min
Tmax [1, 37]: 30 min
accumulation in tissues [1]: no long-term accumulation
distribution in aortic vessels compared with other tissues [2]: lower than that in other tissues
tissues with the highest concentrations [2]: kidney, followed by the liver
metabolites found [3]: no detectable phase I and phase II metabolites
form excreted [4]: mainly excreted in their original forms
oral absolute bioavailability [4]: 78.23% and > 70%
pharmacokinetic profile versus dose [4]: non-linear pharmacokinetics
effect on rat CYP2C11 (rat CYP2C11): mild activation effect
effect on other isoenzymes in RLMs [5]: no obvious effect

OC[C@H]1NC[C@H](O)[C@@H](O)[C@@H]1O [DNJ, 1-deoxynojirimycin]
peak time in the brain [1]: 4 h
tissues with the highest concentrations [1]: kidney, followed by the liver, aortic vessels, and brown adipose tissue
CLz ([1]; Plasma, n=5): 35.7 ± 5.17 mL/min/kg
Vz ([1]; Plasma, n=5): 1.59 ± 0.29 L/kg
half-life [1, 6]: 26.4 ± 13.2 min
AUC(0-t) [1, 7]: 3750 ± 995 ng·h/mL
Tmax [1, 8]: 30 min
Cmax [1, 9]: 68200 ± 12400 ng/mL
half-life [1, 9]: 148 ± 30.6 min
AUC(0-t) [1, 10]: 174000 ± 37100 ng·h/mL
Tmax [1, 11]: 30 min
Cmax [1, 12]: 3300 ± 893 ng/mL
half-life [1, 12]: 33 ± 0.6 min
AUC(0-t) [1, 13]: 7560 ± 1840 ng·h/mL
Tmax [1, 14]: 25.2 ± 11.4 min
Cmax ([1]; Sprague-Dawley, rat, Lung, n=5): 806 ± 23.5 ng/mL
half-life ([1]; Sprague-Dawley, rat, Lung, n=5): 28.2 ± 14.4 min
Tmax [1, 15]: 13.2 ± 14.4 min
Cmax [1, 16]: 386 ± 124 ng/mL
half-life [1, 16]: 130 ± 205 min
AUC(0-t) [1, 17]: 2190 ± 614 ng·h/mL
Tmax [1, 18]: 30 min
Cmax [1, 19]: 5830 ± 843 ng/mL
half-life [1, 19]: 31.2 ± 1.2 min
AUC(0-t) [1, 20]: 13700 ± 1970 ng·h/mL
Tmax [1, 21]: 30 min
Cmax [1, 22]: 725 ± 279 ng/mL
half-life [1, 22]: 45.6 ± 18 min
AUC(0-t) [1, 23]: 2640 ± 544 ng·h/mL
Tmax [1, 24]: 19.8 ± 13.8 min
Cmax [1, 25]: 1270 ± 428 ng/mL
half-life [1, 25]: 102 ± 135 min
AUC(0-t) [1, 26]: 3730 ± 1010 ng·h/mL
Tmax [1, 27]: 25.2 ± 11.4 min
Cmax ([1]; rat, Aortic blood vessels, n=5): 4360 ± 2870 ng/mL
half-life ([1]; rat, Aortic blood vessels, n=5): 36 ± 6.6 min
AUC(0-t) ([1]; rat, Aortic blood vessels, n=5, read-out: AUC(0-t)): 6230 ± 1790 ng·h/mL
Tmax [1, 28]: 4.8 min
Cmax ([1]; rat, Brain, n=5): 242 ± 50.3 ng/mL
half-life ([1]; rat, Brain, n=5): 482 ± 430 min
AUC(0-t) ([1]; rat, Brain, n=5, read-out: AUC(0-t)): 2060 ± 562 ng·h/mL
Tmax ([1]; rat, Brain, n=5, read-out: Tmax): 151 ± 122 min
Cmax ([1]; rat, Brown adipose tissue, n=5): 1420 ± 513 ng/mL
Cmax ([1]; rat, Heart, n=5): 588 ± 140 ng/mL
half-life ([1]; rat, Heart, n=5): 31.8 ± 11.4 min
AUC(0-t) [1, 29]: 1340 ± 373 ng·h/mL
Tmax [1, 30]: 10.2 ± 11.4 min
AUC(0-t) [1, 31]: 1220 ± 501 ng·h/mL
Cmax ([1]; rat, Spleen, n=5): 660 ± 225 ng/mL
half-life ([1]; rat, Spleen, n=5): 37.2 ± 1.8 min
AUC(0-t) [1, 32]: 1880 ± 845 ng·h/mL
Tmax [1, 33]: 30 min
Cmax [1, 34]: 577 ± 163 ng/mL
half-life [1, 34]: 37.8 min
AUC(0-t) [1, 35]: 1210 ± 304 ng·h/mL
Tmax [1, 36]: 30 min
Tmax ([1]; rat, heart, aortic vessels, read-out: time of peak concentration in heart and aortic vessels (converted)): 5 min
Tmax [1, 37]: 30 min
accumulation in tissues [1]: no long-term accumulation
distribution in aortic vessels compared with other tissues [2]: lower than that in other tissues
tissues with the highest concentrations [2]: kidney, followed by the liver
metabolites found [3]: no detectable phase I and phase II metabolites
form excreted [4]: mainly excreted in their original forms
oral absolute bioavailability [4]: 72.41% and > 70%
pharmacokinetic profile versus dose [4]: non-linear pharmacokinetics
effect on rat CYP2C11 (rat CYP2C11): mild activation effect
effect on other isoenzymes in RLMs [5]: no obvious effect
